In US12006294B2, “Therapeutic compounds” (REGENTS OF THE UNIVERSITY OF MINNESOTA, priority 2017, dated 2024):
“Also recorded” adds a separate entry of the source. Where two headings read alike, the source gives them in different places.

Experiments:
[1] = system: mice; assay: Acetaminophen hepatotoxicity (ALT, TBARS, survival); settings: for elevated ALT levels after acetaminophen overdose: delayed administration post APAP administration; for hepatotoxicity of acetaminophen (ALT levels): pretreatment (30 min) before acetaminophen
[2] = system: mice; assay: Tail flick assay of drug combinations (morphine or acetaminophen + GA and/or analogs); settings: acetaminophen:BC1-45-1 ratios 500:1 to 1000:1; acetate
[3] = system: CAD5 cells; format: cell-based
[4] = system: Hela Cells; assay: Cellular ER stress model (tunicamycin, WST-8 cell viability); settings: for AntiERStress (% Cell Survival): HeLa cells, tunicamycin 48 hours, WST-8; for viability at 2.5 µM: Homo sapiens, HeLa, 48 h
[5] = system: C57BL/6J mice; assay: MOG-induced experimental autoimmune encephalomyelitis (EAE); format: in vivo; settings: daily treatment starting on PID 10, preliminary results, FIG. 2

SMILES | 1/Elispot [3] | AntiPrion (Number of Cells × 10^4) [3] | EliSpot (Spots/10000 Cells) [3] [Spots/10000 Cells] | Elispot (vs PC) [3] | AntiERStress (% Cell Survival) [4] [% Cell Survival] | further results
N=C(N)N/N=C/c1c(Cl)cccc1Cl [BC1-45-1, guanabenz, acetate] |  |  |  |  |  | survival rate ([1]; all treatment groups (pretreatment and delayed 0.5-8 h post acetaminophen)): 100%; elevated ALT levels after acetaminophen overdose ([1]; acetate): reduces elevated levels of ALT; also recorded: limited the hepatotoxicity of acetaminophen; hepatotoxicity of acetaminophen (ALT levels) ([1]; acetate): can limit the hepatotoxicity of acetaminophen; also recorded: limited the hepatotoxicity of acetaminophen; analgesic synergy with acetaminophen in tail flick assay [2]: exhibited synergy in the analgesic activity; also recorded: provided synergy at all the time points tested
N=C(N)N/N=C\c1c(Cl)cccc1Cl [BC1-55-1, (Z)-2-(2,6-dichlorobenzylidene)hydrazinecarboximidamide acetate] | 0.59 | 3 × 10^4 | 2200 | 1.69 | 64.33 | lipid peroxidation products (TBARS assay) ([1]; acetaminophen overdose, FIG. 7, acetate): can reduce the lipid peroxidation products; also recorded: limited the elevated lipid peroxidation byproducts; survival rate ([1]; delayed administration post APAP): 100%; elevated ALT levels after acetaminophen overdose ([1]; acetate): reduces elevated levels of ALT; survival rate ([1]; pretreated animals, acetaminophen overdose): 100%; hepatotoxicity of acetaminophen (ALT levels) ([1]; acetate): can limit the hepatotoxicity of acetaminophen; also recorded: limited the hepatotoxicity of acetaminophen; viability at 2.5 µM ([4]; read-out: % Cell Survival Cmpd(2.5 μM) + Tuni, Hela cells, compound 2.5 μM + tunicamycin, WST-8 viability 48 hours after tunicamycin treatment): 22.1%; viability at 2.5 µM ([4]; read-out: Compounds ERS (vs Tn), ERS activity vs Tuni = % cell survival (compound)/% cell survival (tunicamycin), compound 2.5 μM): 96%
N=C(N)N/N=C/c1ccccc1F [BC2-11-1, (E)-2-(2-fluorobenzylidene)hydrazinecarboximidamide acetate] | 1.63 | 38 × 10^4 | 800 | 0.62 | 52.43 | 
N=C(N)N/N=C/c1ccc(Cl)cc1 [BC2-13-1, (E)-2-(4-chlorobenzylidene)hydrazinecarboximidamide acetate] | 0.72 | 9 × 10^4 | 1800 | 1.38 | 68.97 | 
N=C(N)N/N=C/c1ccc(F)cc1Cl [BC2-17-1, (E)-2-(2-chloro-4-fluorobenzylidene)hydrazinecarboximidamide acetate] | 1.00 | 16 × 10^4 | 1300 | 1.00 | 104.8795 | 
N=C(N)N/N=C/c1ccc(Cl)cc1F [BC2-19-1, (E)-2-(4-chloro-2-fluorobenzylidene)hydrazinecarboximidamide acetate] | 0.72 | 5 × 10^4 | 1800 | 1.38 | 64.15 | 
COc1cccc(Cl)c1/C=N/NC(=N)N [BC2-25-1, (E)-2-(2-chloro-6-methoxybenzylidene)hydrazinecarboximidamide acetate] | 1.08 | 20 × 10^4 | 1200 | 0.92 | 51.7 | 
N=C(N)N/N=C/c1c(Cl)cccc1C(F)(F)F [BC2-45-1, (E)-2-(2-chloro-6-(trifluoromethyl)benzylidene)hydrazinecarboximidamide acetate] | 0.62 | 10 × 10^4 | 2100 | 1.62 | 99.19 | 
N=C(N)N/N=C/c1c(I)cccc1I [BC2-55-2, (E)-2-(2,6-diiodobenzylidene)hydrazinecarboximidamide] | 1.00 | 4 × 10^4 | 1300 | 1.00 | 70.69 | 
N=C(N)N/N=C/c1c(O)cccc1Cl [BC2-59-1, (E)-2-(2-chloro-6-hydroxybenzylidene)hydrazinecarboximidamide acetate] | 0.93 | 15 × 10^4 | 1400 | 1.08 | 104.6895 | 
N=C(N)N/N=C/c1c(N)cccc1Cl [BC2-61-1, (E)-2-(2-amino-6-chlorobenzylidene)hydrazinecarboximidamide] | 0.93 | 10 × 10^4 | 1400 | 1.08 | 86.56 | 
N=C(N)N/N=C/c1ccccc1N [BC2-61-2, (E)-2-(2-aminobenzylidene)hydrazinecarboximidamide] | 1.63 | 50 × 10^4 | 800 | 0.62 | 58.21 | 
CC(=O)N[C@@H](CS)C(=O)O [N-acetyl cysteine] |  |  |  |  |  | elevated ALT levels after acetaminophen overdose [1]: less effective in limiting elevated ALT levels; hepatotoxicity of acetaminophen (ALT levels) [1]: less effective in limiting the hepatotoxicity of acetaminophen; animals died before completion of the study ([1]; pretreatment, acetaminophen overdose): Twenty-five; animals died before completion of the study ([1]; treated four hours after acetaminophen overdose): Eighty-eight
NC(N)=N/N=C/c1ccccc1Cl [Sephin 1, reference compound] | 1.63 | 32 × 10^4 | 800 | 0.62 | 87.19 | EAE disease severity (clinical severity score) [5]: markedly attended the EAE disease severity; EAE disease severity (clinical severity score) ([5]; listed as sephin 1): attends the EAE disease severity; ERS (vs Tn) ([4]; % cell survival (compound)/% cell survival (tunicamycin)): 1.80
